Test results published in the supplement of paper PMC11061612.

What was measured:
Experiment in all cases: Bliss excess, mean over the matrix (fraction); higher = more synergy
[1] = tested on: SW1271 (Small Cell Lung Carcinoma)
Method in brief: (§1)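 Cell lines grown in DMEM/F12 or RPMI with 10% FBS were plated in 1536-well plates and held 24 hours at 37°C, 5% CO2 before 72 hours of exposure to two-drug dose matrices, with DMSO typically at 0.2%. CellTiter-Glo 2.0 luminescence gave viability, which was converted to inhibition. Vehicle wells were set to 0 and blank wells to 1. Combination Emax is the second-highest inhibition in the matrix, and Bliss excess is the observed combination effect minus the expected EA + EB − EA·EB, where EA and EB are the single-agent effects.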

[2] = tested on: CAL-51 (Breast Carcinoma)
Method in brief: as §1

[3] = tested on: CAL-54 (Kidney Carcinoma)
Method in brief: as §1

[4] = tested on: SW1116 (Colorectal Carcinoma)
Method in brief: as §1

[5] = tested on: MHH-PREB-1 (B-Cell Non-Hodgkin's Lymphoma)
Method in brief: as §1

[6] = tested on: TE-4 (Esophageal Squamous Cell Carcinoma)
Method in brief: as §1

[7] = tested on: Hs-633T (Other Solid Carcinomas)
Method in brief: as §1

[8] = tested on: SW626 (Colorectal Carcinoma)
Method in brief: as §1

[9] = tested on: OC-314 (Ovarian Carcinoma)
Method in brief: as §1

[10] = tested on: PCI-30 (Head and Neck Carcinoma)
Method in brief: as §1

[11] = tested on: SUP-T1 (T-Lymphoblastic Leukemia)
Method in brief: as §1

[12] = tested on: SK-OV-3 (Ovarian Carcinoma)
Method in brief: as §1

[13] = tested on: KYSE-410 (Esophageal Squamous Cell Carcinoma)
Method in brief: as §1

[14] = tested on: NCI-H2795 (Mesothelioma)
Method in brief: as §1

[15] = tested on: HCC-15 (Squamous Cell Lung Carcinoma)
Method in brief: as §1

[16] = tested on: HMV-II (Melanoma)
Method in brief: as §1

[17] = tested on: LU-139 (Small Cell Lung Carcinoma)
Method in brief: as §1

[18] = tested on: HDLM-2 (Hodgkin's Lymphoma)
Method in brief: as §1

[19] = tested on: UMC-11 (Other Solid Carcinomas)
Method in brief: as §1

[20] = tested on: NCI-H28 (Mesothelioma)
Method in brief: as §1

Compound	Bliss excess [1]	Bliss excess [2]	Bliss excess [3]	Bliss excess [4]	Bliss excess [5]	Bliss excess [6]	Bliss excess [7]	Bliss excess [8]	Bliss excess [9]	Bliss excess [10]	Bliss excess [11]	Bliss excess [12]	Bliss excess [13]	Bliss excess [14]	Bliss excess [15]	Bliss excess [16]	Bliss excess [17]	Bliss excess [18]	Bliss excess [19]	Bliss excess [20]
CCN(CCO)CCCOc1ccc2c(Nc3cc(CC(=O)Nc4cccc(F)c4)[nH]n3)ncnc2c1 [AZD2811] + C[C@@H]1COCCN1C2=NC(=NC(=C2)C3(CC3)[S@](=N)(=O)C)C4=C5C=CNC5=NC=C4 [AZD6738] (first compound max 1 µM, 7x7, partner max 10 µM)	-0.0829	0.0075	-0.0383	-0.0234	-0.0608	-0.047	-0.0197	-0.0724	0.0052	-0.0516	-0.0291	-0.117	-0.0514	-0.0517	-0.0238	-0.0395	-0.108	-0.0357	-0.0488	-0.0554
CC1(C)CCC(CN2CCN(c3ccc(C(=O)NS(=O)(=O)c4ccc(NCC5CCOCC5)c([N+](=O)[O-])c4)c(Oc4cnc5[nH]ccc5c4)c3)CC2)=C(c2ccc(Cl)cc2)C1 [Venetoclax] + C1CN(CCC1(C(=O)N[C@@H](CCO)C2=CC=C(C=C2)Cl)N)C3=NC=NC4=C3C=CN4 [Capivasertib] (first compound max 1 µM, 7x7, partner max 3 µM)	-0.105	-0.0879	-0.027	-0.0491	-0.0398	-0.0421	-0.0185	-0.018	-0.0017	-0.0216	-0.0641	-0.0577	-0.0427	-0.111	-0.0286	-0.0444	-0.0467	-0.0166	-0.038	-0.0848
CC1(C)CCC(CN2CCN(c3ccc(C(=O)NS(=O)(=O)c4ccc(NCC5CCOCC5)c([N+](=O)[O-])c4)c(Oc4cnc5[nH]ccc5c4)c3)CC2)=C(c2ccc(Cl)cc2)C1 [Venetoclax] + C[C@@H]1COCCN1C2=NC(=NC(=C2)C3(CC3)[S@](=N)(=O)C)C4=C5C=CNC5=NC=C4 [AZD6738] (first compound max 1 µM, 7x7, partner max 10 µM)	-0.0497	0.005	-0.0737	-0.0234	0.0046	-0.0337	-0.0455	-0.0492	-0.003	-0.0076	-0.0098	-0.012	-0.0473	-0.0578	-0.0296	-0.0853	-0.0111	0.0068	-0.0331	-0.059
C[C@@H]1COCCN1c1cc(C2([S@](C)(=N)=O)CC2)nc(-c2ccnc3[nH]ccc23)n1 [AZD6738] + O=C(c1cc(Cc2n[nH]c(=O)c3ccccc23)ccc1F)N1CCN(C(=O)C2CC2)CC1 [Olaparib] (first compound max 10 µM, 7x7, partner max 10 µM)	-0.016	0.0407	0.045	-0.0228	-0.0405	0.0082	0.0221	-0.0022	0.0247	-0.052	-0.0289	-0.0222	-0.0219	0.053	0.0025	-0.0296	0.0115	-0.0437	0.0266	0.011
NC1(C(=O)N[C@@H](CCO)c2ccc(Cl)cc2)CCN(c2ncnc3[nH]ccc23)CC1 [Capivasertib] + Cn1cnc2c(F)c(Nc3ccc(Br)cc3Cl)c(C(=O)NOCCO)cc21 [Selumetinib] (first compound max 10 µM, 7x7, partner max 10 µM)	0.0312	0.0176	0.0079	0.0203	-0.0067	0.102	0.0259	0.0124	0.0668	-0.0097	0.0063	-0.0629	0.0521	0.0097	0.0366	-0.005	-0.0165	-0.0118	0.0032	-0.0231
COc1nnc2ccc(N3CCC(c4ccc(OCCN5CCN(C)C(=O)[C@H]5C)cc4)CC3)nn12 [AZD5153] + CCN(CCO)CCCOc1ccc2c(Nc3cc(CC(=O)Nc4cccc(F)c4)[nH]n3)ncnc2c1 [AZD2811] (first compound max 1 µM, 7x7, partner max 1 µM)	-0.0234	-0.0038	-0.0225	-0.0632	0.0074	-0.0116	-0.0285	-0.0348	-0.04	-0.0568	0.0027	-0.0703	-0.0182	-0.0807	-0.0646	-0.0481	0.0203	0.0003	-0.123	-0.0415
CC1(C)CCC(CN2CCN(c3ccc(C(=O)NS(=O)(=O)c4ccc(NCC5CCOCC5)c([N+](=O)[O-])c4)c(Oc4cnc5[nH]ccc5c4)c3)CC2)=C(c2ccc(Cl)cc2)C1 [Venetoclax] + CN(C)CCCOc1ccc(-c2ccc3ncc4c(c3c2)n(C2CCOCC2)c(=O)n4C)cn1 [AZD0156] (first compound max 1 µM, 7x7, partner max 1 µM)	-0.0283	0.0064	-0.0085	-0.0409	0.0029	-0.0191	-0.0023	-0.0381	0.008	-0.0665	-0.0294	-0.0637	-0.0377	0.0332	-0.0196	0.0134	0.0014	-0.0015	-0.0004	-0.0547
CN(CCO)CC[C@H](CSc1ccccc1)Nc1ccc(S(=O)(=O)NC(=O)c2ccc(N3CCC([C@@H](O)c4ccccc4-c4ccc(Cl)cc4)CC3)cc2)cc1S(=O)(=O)C(F)(F)F [AZD4320] + C[C@@H]1COCCN1C2=NC(=NC(=C2)C3(CC3)[S@](=N)(=O)C)C4=C5C=CNC5=NC=C4 [AZD6738] (first compound max 1 µM, 7x7, partner max 10 µM)	-0.0085	-0.0316	-0.0435	-0.0406	-0.039	0.028	-0.0092	-0.0606	-0.0066	-0.0223	-0.0356	-0.0984	-0.0723	0.0173	-0.0124	-0.0476	-0.0613	-0.0171	-0.028	-0.0284
COc1cccc(OCCCN)c1-c1cc(Nc2cnc(C#N)cn2)n[nH]1 [Prexasertib] + C[C@@H]1COCCN1C2=NC(=NC(=C2)C3(CC3)[S@](=N)(=O)C)C4=C5C=CNC5=NC=C4 [AZD6738] (first compound max 1 µM, 7x7, partner max 10 µM)	-0.0337	-0.0078	-0.0883	0.0637	-0.0643	0.0058	0.0095	0.007	0.0344	0.003	-0.0374	-0.0412	-0.0548	0.0361	0.0058	0.0359	0.0339	-0.0669	-0.0213	-0.0062
Cc1nc(Nc2ncc(C(=O)Nc3c(C)cccc3Cl)s2)cc(N2CCN(CCO)CC2)n1 [Dasatinib] + CC(=O)Nc1cccc(-n2c(=O)n(C3CC3)c(=O)c3c(Nc4ccc(I)cc4F)n(C)c(=O)c(C)c32)c1 [Trametinib] (first compound max 2 µM, 7x7, partner max 1 µM)	0.119	-0.017	-0.0031	0.0459	-0.0504	-0.12	0.0302	0.0385	0.0153	-0.0727	-0.0967	-0.075	-0.0622	-0.0513	0.193	-0.136	-0.0243	-0.0467	-0.0733	-0.0021
CC1(C)CCC(CN2CCN(c3ccc(C(=O)NS(=O)(=O)c4ccc(NCC5CCOCC5)c([N+](=O)[O-])c4)c(Oc4cnc5[nH]ccc5c4)c3)CC2)=C(c2ccc(Cl)cc2)C1 [Venetoclax] + Cn1cnc2c(F)c(Nc3ccc(Br)cc3Cl)c(C(=O)NOCCO)cc21 [Selumetinib] (first compound max 1 µM, 7x7, partner max 3 µM)	-0.0255	-0.0088	-0.0466	-0.0736	0.0028	-0.0277	-0.0386	-0.0877	-0.0214	-0.0429	-0.0723	-0.0624	-0.0393	-0.0354	0.0315	-0.0317	-0.0357	-0.0245	-0.0424	-0.0449
COc1cccc2c1C(=O)c1c(O)c3c(c(O)c1C2=O)C[C@@](O)(C(=O)CO)C[C@@H]3O[C@H]1C[C@H](N)[C@H](O)[C@H](C)O1 [Doxorubicin] + Cc1cc2ncnn2cc1Nc1ncc2c(n1)n(C1CCOCC1)c(=O)n2C [AZD7648] (first compound max 1 µM, 7x7, partner max 10 µM)	0.0452	0.121	0.0594	-0.0046	0.0891	-0.0039	0.118	0.0033	0.105	0.006	0.0368	-0.0049	-0.0448	0.0227	0.0127	0.062	0.0476	0.0106	0.07	-0.0177
CN(CCO)CC[C@H](CSc1ccccc1)Nc1ccc(S(=O)(=O)NC(=O)c2ccc(N3CCC([C@@H](O)c4ccccc4-c4ccc(Cl)cc4)CC3)cc2)cc1S(=O)(=O)C(F)(F)F [AZD4320] + Cc1cc2ncnn2cc1Nc1ncc2c(n1)n(C1CCOCC1)c(=O)n2C [AZD7648] (first compound max 1 µM, 7x7, partner max 10 µM)	-0.0386	-0.0064	-0.0122	-0.0359	-0.0041	-0.0202	0.0109	-0.0526	-0.0394	-0.057	-0.0222	-0.063	-0.0406	-0.0395	-0.0214	-0.0718	0.0151	-0.0018	0.0377	-0.055
COc1cccc(OCCCN)c1-c1cc(Nc2cnc(C#N)cn2)n[nH]1 [Prexasertib] + Cc1cc2ncnn2cc1Nc1ncc2c(n1)n(C1CCOCC1)c(=O)n2C [AZD7648] (first compound max 1 µM, 7x7, partner max 10 µM)	-0.0014	0.0069	-0.0483	-0.0183	-0.0322	-0.003	0.0201	0.0236	-0.0286	-0.0227	-0.0536	-0.0686	-0.0267	-0.0556	0.0328	0.0203	-0.015	-0.0934	-0.0692	-0.0397
